Data as given in US20240018161A1, “MODULATORS OF CYSTIC FIBROSIS TRANSMEMBRANE CONDUCTANCE REGULATOR” (VERTEX PHARMACEUTICALS INCORPORATED, priority 2020, published 2024).
pEC50: −log10 of the molar value. Where two headings read alike, the source gives them in different places.

Target: CFTR-mediated chloride transport in human intestinal epithelial enteroid cells (Homo sapiens, UniProt P13569)
Assay: Membrane potential dye, Enteroid Assay A
Assay type: cell-based
Settings: for pEC50: read-out: Ent. A EC50
Protocol: Base medium (ADF+++) consisted of Advanced DMEM/Ham's F12, 2 mM Glutamax, 10 mM HEPES, […] penicillin/streptomycin.
Bath 1 Buffer consisted of 1 mM MgCl2, 160 mM NaCl, 4.5 mM KCl, 10 mM HEPES, 10 mM Glucose, 2 mM CaCl2.
Chloride Free Buffer consisted of 1 mM Magnesium Gluconate, 2 mM Calcium Gluconate, 4.5 mM Potassium Gluconate, 160 mM Sodium Gluconate, 10 mM HEPES, 10 mM Glucose.
Bath1 Dye Solution consisted of Bath 1 Buffer, 0.04% Pluronic F127, 20 μM Methyl Oxonol, 30 μM CaCCinh-A01, 30 μM Chicago Sky Blue.
Chloride Free Dye Solution consisted of Chloride Free Buffer, 0.04% Pluronic F127, 20 μM Methyl Oxonol, 30 μM CaCCinh-A01, 30 μM Chicago Sky Blue.
3. Enteroid Cell Harvesting and Seeding
Cells were recovered in cell recovery solution, collected by centrifugation at 650 rpm for 5 min at 4° C., resuspended in TryPLE and incubated for 5 min at 37° C. Cells were then collected by centrifugation at 650 rpm for 5 min at 4° C. and resuspended in IEMM containing 10 μM ROCK inhibitor (RI).
4. Membrane Potential Dye, Enteroid Assay A
Briefly, cells were washed 5 times in Bath 1 Buffer. Bath 1 Dye Solution was added, and the cells were incubated for 25 min at room temperature. Following dye incubation, cells were washed 3 times in Chloride Free Dye Solution. Chloride transport was initiated by addition of Chloride Free Dye Stimulation Solution and the fluorescence signal was read for 15 min. […] Chloride transport was then expressed as a percentage of the chloride transport following treatment with 3 μM N-[(6-amino-2-pyridyl)sulfonyl]-6-(3-fluoro-5-isobutoxy-phenyl)-2-[(4S)-2,2,4-trimethylpyrrolidin-1-yl]pyridine-3-carboxamide, 3 μM (R)-1-(2,2-difluorobenzo[d][1,3]dioxol-5-yl)-N-(1-(2,3-dihydroxypropyl)-6-fluoro-2-(1-hydroxy-2-methylpropan-2-yl)-1H-indol-5-yl)cyclopropanecarboxamide and 300 nM acute N-[2,4-bis(1,1-dimethylethyl)-5-hydroxyphenyl]-1,4-dihydro-4-oxoquinoline-3-carboxamide triple combination control (% Activity).

Chain of CFTR-mediated chloride transport in human intestinal epithelial enteroid cells (P13569 with tags, fused parts or gaps DEL508-508): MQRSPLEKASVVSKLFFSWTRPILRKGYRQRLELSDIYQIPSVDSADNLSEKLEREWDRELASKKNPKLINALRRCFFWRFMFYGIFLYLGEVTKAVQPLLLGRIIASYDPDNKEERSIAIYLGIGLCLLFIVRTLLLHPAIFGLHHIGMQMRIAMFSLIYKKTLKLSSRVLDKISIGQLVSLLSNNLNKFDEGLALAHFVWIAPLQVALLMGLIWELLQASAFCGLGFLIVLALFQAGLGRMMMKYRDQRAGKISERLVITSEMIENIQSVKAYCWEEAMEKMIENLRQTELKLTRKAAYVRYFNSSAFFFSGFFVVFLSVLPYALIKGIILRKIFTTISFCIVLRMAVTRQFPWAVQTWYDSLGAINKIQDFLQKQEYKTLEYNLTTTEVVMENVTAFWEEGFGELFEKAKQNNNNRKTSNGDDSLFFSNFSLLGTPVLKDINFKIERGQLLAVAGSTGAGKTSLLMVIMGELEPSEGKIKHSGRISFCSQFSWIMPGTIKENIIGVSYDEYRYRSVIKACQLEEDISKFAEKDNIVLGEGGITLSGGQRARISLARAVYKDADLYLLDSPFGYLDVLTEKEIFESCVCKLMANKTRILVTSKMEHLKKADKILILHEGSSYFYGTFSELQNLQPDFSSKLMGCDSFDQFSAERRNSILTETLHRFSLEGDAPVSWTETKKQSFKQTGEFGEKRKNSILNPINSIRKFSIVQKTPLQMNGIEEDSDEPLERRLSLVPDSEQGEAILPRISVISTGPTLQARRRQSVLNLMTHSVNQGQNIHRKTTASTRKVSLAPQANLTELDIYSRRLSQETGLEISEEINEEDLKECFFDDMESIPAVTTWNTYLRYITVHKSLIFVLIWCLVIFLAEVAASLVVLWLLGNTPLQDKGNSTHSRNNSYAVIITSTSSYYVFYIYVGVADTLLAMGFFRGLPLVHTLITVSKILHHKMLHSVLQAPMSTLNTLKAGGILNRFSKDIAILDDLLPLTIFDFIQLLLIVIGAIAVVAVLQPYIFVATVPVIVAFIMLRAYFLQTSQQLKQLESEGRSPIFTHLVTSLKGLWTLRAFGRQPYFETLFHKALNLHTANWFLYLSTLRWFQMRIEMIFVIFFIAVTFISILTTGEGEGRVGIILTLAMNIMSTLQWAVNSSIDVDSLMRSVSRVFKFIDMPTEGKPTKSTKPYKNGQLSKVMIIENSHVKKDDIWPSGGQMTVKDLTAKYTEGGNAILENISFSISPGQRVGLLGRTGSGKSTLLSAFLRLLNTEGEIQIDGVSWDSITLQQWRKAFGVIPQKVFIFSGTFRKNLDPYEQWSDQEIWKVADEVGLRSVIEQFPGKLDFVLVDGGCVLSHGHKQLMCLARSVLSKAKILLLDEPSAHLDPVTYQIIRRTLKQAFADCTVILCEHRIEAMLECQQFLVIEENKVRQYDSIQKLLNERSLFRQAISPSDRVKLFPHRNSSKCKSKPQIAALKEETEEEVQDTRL

| Compound | Ent. A Max Activity (%) (Enteroid Assay A) | pEC50 (Enteroid Assay A) | Ent. A Max Activity (%) | pEC50 |
| --- | --- | --- | --- | --- |
| Cc1cccc(C)c1-c1cc2nc(n1)NS(=O)(=O)c1cccc(c1)C(=O)N1CCN(C3CCC(C)(C)CC3)C[C@H](C1)O2 [Compound 5, (16R)-18-(4,4-Dimethylcyclohexyl)-12-(2,6-dimethylphenyl)-15-oxa-8λ^6-thia-1,9,11,18,22-pentaazatetracyclo[14.4.1.13,7.110,14]tricosa-3(23),4,6,10,12,14(22)-hexaene-2,8,8-trione] |  |  | +++ (key: +++ is >600%; ++ is 30-60%; + is <30%) | > 6.00 |
| Cc1cccc(C)c1-c1cc2nc(n1)NS(=O)(=O)c1cccc(c1)C(=O)N1CCN(C3CCCC3)C[C@H](C1)O2 [Compound 6, (16R)-18-cyclopentyl-12-(2,6-dimethylphenyl)-8,8-dioxo-15-oxa-8λ^6-thia-1,9,11,18,22-pentazatetracyclo[14.4.1.13,7.110,14]tricosa-3,5,7(23),10(22),11,13-hexaen-2-one] | +++ (+++ is >600%) | > 6.00 |  |  |
| Cc1cccc(C)c1-c1cc2nc(n1)NS(=O)(=O)c1cccc(c1)C(=O)N1CCN(C3CC4(CCCC4)C3)C[C@H](C1)O2 [Compound 8, (16R)-12-(2,6-Dimethylphenyl)-18-{spiro[3.4]octan-2-yl}-15-oxa-8λ^6-thia-1,9,11,18,22-pentaazatetracyclo[14.4.1.13,7.110,14]tricosa-3(23),4,6,10(22),11,13-hexaene-2,8,8-trione] | +++ (+++ is >600%) | > 6.00 |  |  |
| Cc1cccc(C)c1-c1cc2nc(n1)NS(=O)(=O)c1cccc(c1)C(=O)N1CCN(C3CCC4(CCCCC4)CC3)C[C@H](C1)O2 [Compound 12] | +++ (+++ is >600%) | > 6.00 |  |  |
| Cc1cccc(C)c1-c1cc2nc(n1)NS(=O)(=O)c1cccc(c1)C(=O)N1CCN(C3CCC4CC43)C[C@H](C1)O2 (stereo partly shown) [Compound 15] | +++ (+++ is >600%) | > 6.00 |  |  |

Second part, led by results:

| Ent. A Max Activity (%) (Enteroid Assay A) | pEC50 (Enteroid Assay A) | Compound | Ent. A Max Activity (%) | pEC50 |
| --- | --- | --- | --- | --- |
| +++ (+++ is >600%) | > 6.00 | Cc1cccc(C)c1-c1cc2nc(n1)NS(=O)(=O)c1cccc(c1)C(=O)N1CCN(C3CC4(CCCCC4)C3)C[C@H](C1)O2 [Compound 3, (16R)-12-(2,6-Dimethylphenyl)-18-{spiro[3.5]nonan-2-yl}-15-oxa-8λ^6-thia-1,9,11,18,22-pentaazatetracyclo[14.4.1.13,7.110,14]tricosa-3(23),4,6,10(22),11,13-hexaene-2,8,8-trione] |  |  |
| +++ (+++ is >600%) | > 6.00 | Cc1cccc(C)c1-c1cc2nc(n1)NS(=O)(=O)c1cccc(c1)C(=O)N1CCN(C3CCC(F)(F)CC3)C[C@H](C1)O2 [Compound 4, (16R)-18-(4,4-Difluorocyclohexyl)-12-(2,6-dimethylphenyl)-15-oxa-8λ^6-thia-1,9,11,18,22-pentaazatetracyclo[14.4.1.13,7.110,14]tricosa-3(23),4,6,10(22),11,13-hexaene-2,8,8-trione] |  |  |
| +++ (+++ is >600%) | > 6.00 | CCC(CC)N1CCN2C[C@@H](C1)Oc1cc(-c3c(C)cccc3C)nc(n1)NS(=O)(=O)c1cccc(c1)C2=O [Compound 11, (16R)-12-(2,6-Dimethylphenyl)-18-(1-ethylpropyl)-8,8-dioxo-15-oxa-8λ^6-thia-1,9,11,18,22-pentazatetracyclo[14.4.1.13,7.110,14]tricosa-3,5,7(23),10,12,14(22)-hexaen-2-one] |  |  |
| +++ (+++ is >600%) | > 6.00 | Cc1cccc(C)c1-c1cc2nc(n1)NS(=O)(=O)c1cccc(c1)C(=O)N1CCN(C3CCC4(CC3)CC4)C[C@H](C1)O2 [Compound 13] |  |  |
| +++ (+++ is >600%) | > 6.00 | Cc1cccc(C)c1-c1cc2nc(n1)NS(=O)(=O)c1cccc(c1)C(=O)N1CCN(CC3(C)CCOCC3)C[C@H](C1)O2 [Compound 14] |  |  |
| +++ (+++ is >600%) | > 6.00 | Cc1cccc(C)c1-c1cc2nc(n1)NS(=O)(=O)c1cccc(c1)C(=O)N1CCN(Cc3ccc(C(C)(C)C)cc3)C[C@H](C1)O2 [Compound 16] |  |  |
